# In US8557849B2 (priority 2008, dated 2013):
# Test: Measurement of logP values by HPLC on reversed phase columns (EEC directive 79/831 Annex V.A8)
# Format: physicochemical
# Settings: method [a]: pH 2.3 with 0.1% phosphoric acid and acetonitrile as eluent
# Procedure: Measurement of logP values was performed according EEC directive 79/831 Annex V.A8 by HPLC (High Performance Liquid Chromatography) on reversed phase columns with the following methods: • ^[a] Measurement was done at pH 2.3 with 0.1% phosphoric acid and acetonitrile as eluent. • ^[b] measurement of LC-MS was done at pH 2.7 with 0.1% formic acid in water and with acetonitrile (contains 0.1% formic acid) as eluent with a linear gradient from 10% acetonitrile to 95% acetonitrile. • ^[c] Measurement with LC-MS was done at pH 7.8 with 0.001 molar ammonium hydrogen carbonate solution in water as eluent with a linear gradient from 10% acetonitrile to 95% acetonitrile.
row,SMILES,log p
1,CCCCC#Cc1nc(C(C)ON=C(c2ccccc2)c2nnnn2C)cs1 (stereo not shown) [Example 6],4.73^[a]
2,Cn1nnnc1C(=NOCCc1csc(C#CC2CC2)n1)c1ccccc1 [Example 8],3.69^[a]
3,CC(ON=C(c1ccccc1)c1nnnn1C)c1csc(C#CCC2CCCC2)n1 (stereo not shown) [Example 4],5.23^[a]
4,CC(ON=C(c1ccccc1)c1nnnn1C)c1csc(C#CCC2CCCCC2)n1 (stereo not shown) [Example 5],5.65^[a]
5,CCCCC#Cc1nc(CCON=C(c2ccccc2)c2nnnn2C)cs1 [Example 9],4.46^[a]
6,CC(ON=C(c1ccccc1)c1nnnn1C)c1csc(C#CCCCc2ccccc2)n1 (stereo not shown) [Example 3],5.08^[a]
7,Cn1nnnc1C(=NOCCc1csc(Br)n1)c1ccccc1 [Example 7],3.25^[a]

# Same assay, conditions: method [b]: LC-MS at pH 2.7 with 0.1% formic acid in water and acetonitrile, linear gradient 10% to 95% acetonitrile
row,SMILES,log p
1,CC(ON=C(c1ccccc1)c1nnnn1C)c1ccccn1 (stereo not shown) [Example 11],2.19^[b]
2,CC(C)CC(=O)Nc1cccc(C(C)O/N=C(/c2ccccc2)c2nnnn2C)n1 (stereo not shown) [Example 13],3.53^[b]
3,CC(ON=C(c1ccccc1)c1nnnn1C)c1cccc(N)n1 (stereo not shown) [Example 12],1.34^[b]
4,CCCCCC(=O)Nc1cccc(C(C)O/N=C(/c2ccccc2)c2nnnn2C)n1 (stereo not shown) [Example 17],3.96^[b]
5,CCCCCOC(=O)Nc1cccc(C(C)O/N=C(/c2ccccc2)c2nnnn2C)n1 (stereo not shown) [Example 18],4.54^[b]
6,CCCCCOC(=O)Nc1cccc(C(C)O/N=C(\c2ccccc2)c2nnnn2C)n1 (stereo not shown) [Example 15],4.41^[b]
7,Cn1nnnc1C(=NOC(=O)c1ccccn1)c1ccccc1 [Example 10],2.13^[b]
8,CCCCCC(=O)Nc1cccc(C(C)O/N=C(\c2ccccc2)c2nnnn2C)n1 (stereo not shown) [Example 14],3.83^[b]

# Same assay, conditions: reversed phase HPLC column, pH 2.7; HCOOH; given in preparation examples; read-out: logP(HCOOH)
row,SMILES,chromatographic logP
1,"CC(O)c1csc(Br)n1 (stereo not shown) [1-(2-bromo-1,3-thiazol-4-yl)ethanol]",1.1
2,"CC(ON=C(c1ccccc1)c1nnnn1C)c1cccc(NC(=O)OC(C)(C)C)n1 (stereo not shown) [Example 20, tert-butyl {6-[1-({[(1-methyl-1H-tetrazol-5-yl)(phenyl)methylene]amino}oxy)ethyl]pyridin-2-yl}carbamate]",4.09
3,"CC(O)c1csc(N)n1 (stereo not shown) [1-(2-amino-1,3-thiazol-4-yl)ethanol]",-0.16
4,CC(ON=C(c1ccccc1)c1nnnn1C)c1csc(Br)n1 (stereo not shown) [Example 1],3.44
5,"CC(Br)c1cccc(NC(=O)C(C)(C)C)n1 (stereo not shown) [N-[6-(1-bromoethyl)pyridin-2-yl]-2,2-dimethylpropanamide]",3.05
6,"CC(Br)c1csc(Br)n1 (stereo not shown) [2-bromo-4-(1-bromoethyl)-1,3-thiazole]",2.61
7,"CC(ON=C(c1ccccc1)c1nnnn1C)c1cccc(N)n1 (stereo not shown) [Example 16, 6-[1-({[(1-methyl-1H-tetrazol-5-yl)(phenyl)methylene]amino}oxy)ethyl]pyridin-2-amine]",1.21
8,"CC(ON=C(c1ccccc1)c1nnnn1C)c1cccc(NC(=O)C(C)(C)C)n1 (stereo not shown) [Example 19, 2,2-dimethyl-N-{6-[1-({[(1-methyl-1H-tetrazol-5-yl)(phenyl)methylene]amino}oxy)ethyl]pyridin-2-yl}propanamide]",3.64
9,"CC(C)(C)C(=O)Nc1cccc(Br)n1 [N-(6-bromopyridin-2-yl)-2,2-dimethylpropanamide]",2.84
10,"CC(O)c1cccc(NC(=O)C(C)(C)C)n1 (stereo not shown) [N-[6-(1-hydroxyethyl)pyridin-2-yl]-2,2-dimethylpropanamide]",1.08
11,"CC(ON=C(c1ccccc1)c1nnnn1C)c1csc(C#CC2CC2)n1 (stereo not shown) [Example 2, N-{1-[2-(cyclopropylethynyl)-1,3-thiazol-4-yl]ethoxy}-1-(1-methyl-1H-tetrazol-5-yl)-1-phenylmethanimine]",3.89

# Same assay, conditions: reversed phase HPLC column; method [a]: pH 2.3 with 0.1% phosphoric acid and acetonitrile as eluent; read-out: log p
row,SMILES,chromatographic logP
1,CC(ON=C(c1ccccc1)c1nnnn1C)c1csc(Br)n1 (stereo not shown) [Example 1],3.44
2,"CC(ON=C(c1ccccc1)c1nnnn1C)c1csc(C#CC2CC2)n1 (stereo not shown) [Example 2, N-{1-[2-(cyclopropylethynyl)-1,3-thiazol-4-yl]ethoxy}-1-(1-methyl-1H-tetrazol-5-yl)-1-phenylmethanimine]",3.89
